Earlier results on 1 compound are cited in patent US20240366823A1, “INSTANT ACTION AEROSOL FOR AIR SANITIZATION AND DISINFECTION” (Reckitt Benckiser LLC, priority 2021, published 2024).

As usually defined, the vapor pressure is the pressure of vapour in equilibrium with the condensed phase.

The conditions of series [1]: ethanol, water.
For series [2] the following is noted: at 20° C.

Take `OCCOCCOCCO` [TEG, Triethylene glycol]: the solubility result in series [1] is “soluble in ethanol and miscible with water”. Further, in series [2], the vapor pressure is 0.02 Pa.
